One data set relates to female white mice. Briefly: general tranquilizer activity in mice (exploratory loss, ptosis, catatonia, muscle tone, grip and lift reflexes, pinna twitch reflex, tremors, death). The settings on record: for ED50: Mus musculus, po. As to the method: (§1) Groups of five Carworth CF1 S female mice, 16-20 g each, were fasted 16-22 hours before use. The mice were put in opaque plastic "shoe-box" cages 15-30 min. before injection, and then treated orally with 4, 12, 36, 108 and 324 mg/kg of the compound to be tested […] in 1% aqueous distilled water solution of methylcellulose (Methocel®). Each dose was given in a standard volume of 0.45 ml. Observations were made at 0.5, 2 and 24 hours after dosing. ED50 values were calculated for each parameter including death (LD50). The ED50 and LD50 values are the doses at which 50% of the animals would be expected to respond.
(§2) Exploratory Activity - The mouse is placed on a stainless steel wire mesh screen (8 inches × 12 inches, 3 mesh per inch, 174 inch mesh openings) "shoe-box" lid (1 inch high) and is observed for normal activities, such as nose movements, head movements with apparent visual examination of the area, and/or walking around on the screen. Absence of or marked depression of these activities for 5 seconds constitutes loss of exploratory activity.
(§3) Ptosis - The mouse is picked up by the tail and placed on the screen with its head facing the observer. Bilateral eyelid closure of 50% or more two seconds after placement is considered ptosis.
(§4) Catatonia - The mouse is placed with its front paws on the edge of a stainless steel "shoe-box" cover, 1 inch high, covered with adhesive tape. Failure to remove both paws from the cover's edge within 5 seconds constitutes catatonia.
(§5) Muscle Tone - The observer gently strokes the abdominal musculature of the mouse with thumb and forefinger. Flaccidity (or rarely, tenseness) is recorded.
(§6) Grip and Lift Reflexes - The mouse is gently swung by the tail toward a horizontal 12 gauge wire tautly stretched 25 cm above the bench. After the mouse grasps the wire with its forepaws, its posterior end is held directly below the wire. A normal mouse grasps the wire with its forepaws and immediately lifts its hind limbs to the wire. Failure to grasp the wire with the forepaws in both trials constitutes loss of the grip reflex; failure to lift the hind limbs to grasp the wire with at least one hind paw within 5 seconds constitutes loss of the lift reflex.
(§7) Pinna Twitch Reflex - The mouse is placed on the bar 10-20 cm horizontally and 9 cm vertically from a Galton whistle adjusted for 13 kc (5 mm on the whistle scale) and is subjected to several short bursts of sound.
(§8) The ED50 values, i.e., the dose which caused the response in 50% of the mice, are tabulated.

Assay in data set [1]: as above
As to conditions: mouse, in vivo, po. As to the method: as §1, §2, §3, §4, §5, §6, §7, §8

For data set [2], the system named is phenylquinone-induced writhing. Briefly: analgesic activity: prevention of phenylquinone-induced writhing in mice. In kind it is in vivo, mouse (Carworth CF1 S female mice). The settings on record: oral, phenylquinone 1.1 mg/kg intraperitoneally. From the text:
This mouse test is predictive of analgesic response in humans. [E. Siegmund, R. Cadmus and G. Lee, Proc. Soc.
ED50 values were obtained graphically from the data.
(In general: An intraperitoneal irritant provokes the stretching counted in writhing tests.)

[3] abbreviates: read-out: ED50 Catatonia, oral, mice, observed at 0.5, 2 and 24 hours.
The mark [4] stands for this setting: read-out: ED50 Exploratory Loss Visual, oral, mice, observed at 0.5, 2 and 24 hours.
Where [5] appears, read: read-out: ED50 Muscle Tone, oral, mice, observed at 0.5, 2 and 24 hours.
The mark [6] stands for this setting: read-out: ED50 Ptosis, oral, mice, observed at 0.5, 2 and 24 hours.
The mark [7] stands for this setting: read-out: ED50 Reflexes Grip, oral, mice, observed at 0.5, 2 and 24 hours.
[8] abbreviates: read-out: ED50 Reflexes Lift, oral, mice, observed at 0.5, 2 and 24 hours.
Setting [9] is: read-out: ED50 Reflexes Pinna, oral, mice, observed at 0.5, 2 and 24 hours.
Setting [10] is: read-out: ED50 Tremors, oral, mice, observed at 0.5, 2 and 24 hours.
Where [11] appears, read: oral, mice, observed at 0.5, 2 and 24 hours.
[12] abbreviates: oral, mice, observed at 0.5, 2 and 24 hours, hydrochloride.

Where a name gives a salt, the structure may show the parent alone. Read-outs that look alike come from different tables or passages of the source.

In the case of `C[C@]12C[C@@]3(CN(CC4CCCCC4)C[C@@H]3c3ccccc31)c1ccccc12` (relative stereo) [Example 1, 2-Cyclohexylmethyl-8-methyl-trans-2,3,8,12b-tetra-hydro-1H-3a,8-methanodibenzo[3,4:6,7]cyclohepta[1,2-c]-pyrrole Hydrochloride], the ED50 (usually the midpoint of the dose-response relation) was 109 mg/kg with female white mice (setting [3]); 87 mg/kg with female white mice (setting [4]); 109 mg/kg in the data set with female white mice (setting [5]); 87 mg/kg with female white mice (setting [6]); over 324 mg/kg in the data set with female white mice (setting [7]); 97 mg/kg in the data set with female white mice (setting [8]). For the same compound, the ED50 is 109 mg/kg with female white mice (setting [9]); over 324 mg/kg in the data set with female white mice (setting [10]); 30 mg/kg in data set [2] (Mus musculus, dose blocking writhing in 50% of mice, read-out: ED50 Phenylquinone Analgesia). Further, the LD50 (in general, the dose at which mortality reaches 50%) at 24 h in data set [1] is over 324 mg/kg.
With `CN1C[C@@H]2c3ccccc3[C@]3(C)C[C@@]2(C1)c1ccccc13` (relative stereo) [Example 2, 2,8-Dimethyl-trans-2,3,8,12b-tetrahydro-1H-3a,8-methanodibenzo[3,4:6,7]cyclohepta[1,2-c]pyrrole Hydrochloride], the ED50 with female white mice (setting [3]) was determined as 60 mg/kg; with female white mice (setting [4]) it was 60 mg/kg; with female white mice (setting [5]), 36 mg/kg; in the data set on female white mice (setting [6]), 60 mg/kg; with female white mice (setting [7]), 60 mg/kg; with female white mice (setting [8]), 60 mg/kg. The ED50 in the data set on female white mice (setting [9]) and in the data set on female white mice (setting [10]) was 60 mg/kg in each case. In data set [1], the LD50 at 24 h came out at 300 mg/kg. Further, the “Phenylquinone Analgesia (activity in words)” value in data set [2] is “Active”.
As for `CN(C)CCCN1c2ccccc2Sc2ccc(Cl)cc21` [Chlorpromazine, reference compound], the ED50 in the data set with female white mice (setting [3]) turned out to be 8 mg/kg; in the data set on female white mice (setting [4]), 7 mg/kg; in the data set with female white mice (setting [5]) it was 8 mg/kg; in the data set with female white mice (setting [6]), 7 mg/kg; with female white mice (setting [7]), 240 mg/kg; in the data set with female white mice (setting [8]) it was 8 mg/kg. Also, the ED50 in the data set with female white mice (setting [9]) is 5 mg/kg; with female white mice (setting [10]), over 324 mg/kg. Moreover, in data set [1], the LD50 at 24 h is 850 mg/kg.
`CN1C(=O)CN=C(c2ccccc2)c2cc(Cl)ccc21` [Diazepam, reference compound]: the ED50 in the data set with female white mice (setting [3]) amounted to 59 mg/kg; in the data set with female white mice (setting [4]), 87 mg/kg; in the data set with female white mice (setting [5]) it was 89 mg/kg; in the data set with female white mice (setting [6]), 79 mg/kg; with female white mice (setting [7]), 78 mg/kg; in the data set with female white mice (setting [8]), 4.4 mg/kg. Besides, the values for the ED50 in the data set on female white mice (setting [9]) and in the data set on female white mice (setting [10]) were 63 mg/kg and over 324 mg/kg, respectively.
Consider `CC1[C@@H]2c3ccccc3[C@@H]3C[C@@]2(CN1CC1CCCC1)c1ccccc13` (stereo partly drawn) [Example 3g, 2-cyclopentylmethyl-1-methyl-trans-2,3,8,12b-tetrahydro-1H-3a,8-methanodibenzo[3,4:6,7]cyclohepta[1,2-c]pyrrole, hydrochloride], for which the ED50 was 20 mg/kg in the data set with female white mice (setting [3]); 7 mg/kg with female white mice (setting [4]); 20 mg/kg in the data set on female white mice (setting [5]); 12 mg/kg with female white mice (setting [6]); over 324 mg/kg with female white mice (setting [7]); 36 mg/kg in the data set on female white mice (setting [8]). The figures for the ED50 in the data set with female white mice (setting [9]) and in the data set with female white mice (setting [10]) were 20 mg/kg and over 324 mg/kg, respectively. In data set [1], the LD50 at 24 h was over 324 mg/kg. In data set [2], the “Phenylquinone Analgesia (activity in words)” value was “Active”.
Compound `CC1[C@@H]2c3ccccc3[C@@H]3C[C@@]2(CN1CC1CCCC1)c1ccccc13` (stereo partly drawn) [Example 3h, 2-cyclopentylmethyl-1-methyl-trans-2,3,8,12b-tetrahydro-1H-3a,8-methanodibenzo[3,4:6,7]-cyclohepta[1,2-c]pyrrole hydrochloride] showed an LD50 in the data set on female white mice (24-hour value, oral, mice) of over 324 mg/kg. Further, in the data set with female white mice (setting [11]), the “ED50 Muscle Tone” value is 20 mg/kg, the “ED50 Reflexes Grip” value was over 324 mg/kg and the “ED50 Tremors” value is over 324 mg/kg. For the same compound, in the data set with female white mice (setting [12]), the “ED50 Catatonia” value amounted to 12 mg/kg, the “ED50 Exploratory Loss Visual” value is listed as under 4 mg/kg, the “ED50 Ptosis” value is on record as 20 mg/kg and the “ED50 Reflexes Lift” value is given as 20 mg/kg. For the same compound, the “ED50 Reflexes Pinna” value with female white mice (setting [12]) is 12 mg/kg.

The record behind these values is patent US4076830A, “Alkylmethanodibenzocycloheptapyrroles” (E. I. Du Pont de Nemours and Company, priority 1976, dated 1978).
